# From patent US7951954B2, “Bezothiazol derivatives as Beta2 adrenoreceptor agonists” (AstraZeneca AB, priority 2006, dated 2011)
# Where a name gives a salt, the structure may show the parent alone.
# Experiments:
# Adrenergic β2 = target: T1, Adrenergic β2 (Homo sapiens, UniProt P07550); experiment: Adrenergic β2 mediated cAMP production in H292 cells (AlphaScreen cAMP detection); assay type: cell-based; conditions: for EC50: cAMP production in H292 cells, 300 μM rolipram, 10 minutes with compound, read-out: β2 pEC50 (converted); for Intrinsic Activity: fraction relative to the maximum activity determined for formoterol in each experiment, H292 cells, cAMP
# T1 construct: endogenous in cells; host or cells: H292 cells
# T1 sequence (P07550 whole entry): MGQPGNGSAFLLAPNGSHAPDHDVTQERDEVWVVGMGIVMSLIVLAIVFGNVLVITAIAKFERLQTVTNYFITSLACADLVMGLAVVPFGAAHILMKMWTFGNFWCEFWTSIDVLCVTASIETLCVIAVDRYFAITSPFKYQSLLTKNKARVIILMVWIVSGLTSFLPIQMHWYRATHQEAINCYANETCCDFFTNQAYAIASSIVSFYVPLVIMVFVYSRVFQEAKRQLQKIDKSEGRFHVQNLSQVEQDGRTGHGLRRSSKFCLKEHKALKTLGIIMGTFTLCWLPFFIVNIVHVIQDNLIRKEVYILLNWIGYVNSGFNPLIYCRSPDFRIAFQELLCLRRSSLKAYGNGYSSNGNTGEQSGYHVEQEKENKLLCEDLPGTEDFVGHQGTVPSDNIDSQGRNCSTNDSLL
# Experimental: Adrenergic β2 Mediated cAMP Production
# H292 cells were grown in RPMI (Roswell Park Memorial Institute) medium containing, 10% (v/v) FBS (foetal bovine serum) and 2 mM L-glutamine. Cells were grown in 225 cm2 flasks containing 25 mL media in a humidified incubator at 37° C., 5% CO2. Cells were harvested from the flask and passaged at a 1 in 10 dilution once per week.
# The media from flasks containing H292 cells was removed, rinsed with 10 mL PBS phosphate buffered saline) and replaced with 10 mL Accutase™ cell detachment solution. Flasks were incubated for 15 minutes in a humidified incubator at 37° C., 5% CO2. The cell suspension was counted and the cells re-suspended in RPMI media (containing 10% (v/v) FBS and 2 mM L-glutamine) at 0.05×10^6 cells per mL. 5000 cells in 100 μL were added to each well of a tissue-culture-treated 96-well plate and the cells incubated overnight in a humidified incubator at 37° C., 5% CO2. The culture media was removed, washed twice with 100 μL assay buffer and replaced with 50 μL assay buffer. Cells were rested at room temperature for 20 minutes after which time 25 μL of rolipram (1.2 mM made up in assay buffer containing 2.4% (v/v) dimethylsulphoxide) was added. Cells were incubated with rolipram for 10 minutes after which time test compounds (made up as ×4 concentrated stocks in assay buffer containing 4% (v/v) dimethylsulphoxide) were added and the cells were incubated for 10 minutes at room temperature. Final rolipram concentration in the assay was 300 μM and final vehicle concentration was 1.6% (v/v) dimethylsulphoxide. The reaction was stopped by removing supernatants, washing once with 100 μL assay buffer and replacing with 50 μL lysis buffer. The cell monolayer was frozen at −80° C. for 30 minutes (or overnight).
# The concentration of cAMP (cyclic adenosine monophosphate) in the cell lysate was determined using the AlphaScreen™ methodology. The frozen cell plate was thawed for 20 minutes on a plate shaker then 10 μL of the cell lysate was transferred to a 96-well white plate. 40 μL of mixed AlphaScreen™ detection beads (containing equal volumes of donor beads (pre-incubated with biotinylated cAMP in the dark for 30 minutes) and acceptor beads), was added to each well and the plate incubated at room temperature for 10 hours in the dark. The AlphaScreen™ signal was measured using an EnVision spectrophotometer (Perkin-Elmer Inc.) with the recommended manufacturer's settings. cAMP concentrations were determined by reference to a calibration curve determined in the same experiment using standard cAMP concentrations (made up in lysis buffer in a 96-well tissue-culture-treated plate and frozen/thawed alongside the test samples) and detected using the same protocol. Concentration response curves for agonists were constructed to determine both the pEC50 and Intrinsic Activity.
# [1] = target: T2, recombinant human adrenergic beta 1 receptors (Homo sapiens, UniProt P08588); experiment: Adrenergic β1 selectivity assay, [125I]-Iodocyanopindolol binding to membranes; conditions: inhibition of [125I]-Iodocyanopindolol binding, read-out: β1 pEC50 (converted)
# T2 construct: purchased Euroscreen
# T2 sequence (P08588 whole entry): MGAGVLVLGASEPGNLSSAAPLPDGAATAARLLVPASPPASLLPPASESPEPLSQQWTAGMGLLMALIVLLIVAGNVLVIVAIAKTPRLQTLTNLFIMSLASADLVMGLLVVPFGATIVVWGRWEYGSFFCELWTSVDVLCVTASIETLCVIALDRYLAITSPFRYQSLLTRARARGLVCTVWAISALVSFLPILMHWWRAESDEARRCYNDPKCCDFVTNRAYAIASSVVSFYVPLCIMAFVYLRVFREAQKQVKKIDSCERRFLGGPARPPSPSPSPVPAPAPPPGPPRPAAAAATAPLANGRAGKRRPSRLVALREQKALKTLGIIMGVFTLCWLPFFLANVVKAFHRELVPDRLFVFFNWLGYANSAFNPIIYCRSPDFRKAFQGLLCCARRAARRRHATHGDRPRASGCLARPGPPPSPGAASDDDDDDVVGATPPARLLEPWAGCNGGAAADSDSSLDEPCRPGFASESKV
# Experimental: Membranes containing recombinant human adrenergic beta 1 receptors were obtained from Euroscreen. These were diluted in Assay Buffer (50 mM HEPES, 1 mM EDTA, 120 mM NaCl, 0.1% gelatin, pH 7.4) to provide a final concentration of membranes that gave a clear window between maximum and minimum specific binding.
# (§1) Assays were performed in U-bottomed 96-well polypropylene plates. 10 μL [^125I]-Iodocyanopindolol (0.036 nM final concentration) and 10 μL of test compound (10× final concentration) were added to each test well. For each assay plate 8 replicates were obtained for [^125I]-Iodocyanopindolol binding in the presence of 10 μL vehicle (10% (v/v) DMSO in Assay Buffer; defining maximum binding) or 10 μL Propranolol (10 μM final concentration; defining non-specific binding (NSB)). Membranes were then added to achieve a final volume of 100 μL. The plates were incubated for 2 hours at room temperature and then filtered onto PEI coated GF/B filter plates, pre-soaked for 1 hour in Assay Buffer, using a 96-well plate Tomtec cell harvester. Five washes with 250 μL wash buffer (50 mM HEPES, 1 mM EDTA, 120 mM NaCl, pH 7.4) were performed at 4° C. to remove unbound radioactivity. The plates were dried then sealed from underneath using Packard plate sealers and MicroScint-O (50 μL) was added to each well. The plates were sealed (TopSeal A) and filter-bound radioactivity was measured with a scintillation counter (TopCount, Packard BioScience) using a 3-minute counting protocol.
# (§2) Total specific binding (B0) was determined by subtracting the mean NSB from the mean maximum binding. NSB values were also subtracted from values from all other wells.
# [2] = target: T3, recombinant human α1D receptor (Homo sapiens, UniProt P25100); experiment: Adrenergic α1D selectivity assay, [3H]-prazosin binding to HEK293 membranes; conditions: inhibition of [3H]-prazosin binding, HEK293 membranes with recombinant human α1D; read-out: α1D pEC50 (converted)
# T3 construct: expressed in transfected cells; host or cells: HEK293
# T3 sequence (P25100 1-572): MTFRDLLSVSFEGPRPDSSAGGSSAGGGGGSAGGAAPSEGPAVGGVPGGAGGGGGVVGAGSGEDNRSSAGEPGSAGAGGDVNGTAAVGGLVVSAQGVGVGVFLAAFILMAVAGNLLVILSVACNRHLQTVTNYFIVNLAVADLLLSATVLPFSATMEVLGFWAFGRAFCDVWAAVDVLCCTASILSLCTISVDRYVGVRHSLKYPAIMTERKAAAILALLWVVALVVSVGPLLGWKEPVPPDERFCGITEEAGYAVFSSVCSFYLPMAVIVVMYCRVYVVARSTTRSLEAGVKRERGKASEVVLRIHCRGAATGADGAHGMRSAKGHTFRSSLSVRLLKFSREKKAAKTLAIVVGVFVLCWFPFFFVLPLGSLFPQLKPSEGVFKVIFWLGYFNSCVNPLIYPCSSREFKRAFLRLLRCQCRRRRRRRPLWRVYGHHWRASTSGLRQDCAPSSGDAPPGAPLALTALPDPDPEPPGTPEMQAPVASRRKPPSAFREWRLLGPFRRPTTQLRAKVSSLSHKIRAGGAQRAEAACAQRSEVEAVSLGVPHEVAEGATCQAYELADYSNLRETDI
# Experimental: These were diluted in Assay Buffer (50 mM HEPES, 1 mM EDTA, 0.1% gelatin, pH 7.4) to provide a final concentration of membranes that gave a clear window between maximum and minimum specific binding.
# as §1, with “10 μL [^125I]-Iodocyanopindolol (0.036 nM final concentration) and 10 μL of test compound (10× final concentration) were added to each test well.” left out, “[^3H]-prazosin” for “[^125I]-Iodocyanopindolol”, “BMY7378” for “Propranolol”, “EDTA,” for “EDTA, 120 mM NaCl,”
# as §2
Compound,EC50 (Adrenergic β2) [µM],Intrinsic Activity (Adrenergic β2),EC50 [1] [µM],EC50 [2] [µM]
"CC(C)OCCCNCc1cccc(CCNC[C@H](O)c2ccc(O)c3[nH]c(=O)sc23)c1 [Example 64, 4-Hydroxy-7-[1R-hydroxy-2-(2-{3-[(3-isopropoxy-propylamino)-methyl]-phenyl}-ethylamino)-ethyl]-3H-benzothiazol-2-one bis-hydrochloride salt]",0.000794,0.8,0.501,0.398
"O=c1[nH]c2c(O)ccc([C@@H](O)CNCCc3cccc(CN4CCCCCC4)c3)c2s1 [Example 71, 7-{2-[2-(3-Azepan-1-ylmethyl-phenyl)-ethylamino]-1R-hydroxy-ethyl}-4-hydroxy-3H-benzothiazol-2-one bis-hydrochloride salt-]",0.000794,0.9,0.398,0.0316
"O=c1[nH]c2c(O)ccc([C@@H](O)CNCCc3cccc(CN4CCOCC4)c3)c2s1 [Example 72, 4-Hydroxy-7-{1R-hydroxy-2-[2-(3-morpholin-4-ylmethyl-phenyl)-ethylamino]-ethyl}-3H-benzothiazol-2-one bis-hydrochloride salt]",0.001,0.9,0.1,0.398
